What follows are compounds tested on primary cerebellum granule cells of rats (assay: Protective effects of compounds on primary cerebellum granule cells of rats (glutamate-induced excitotoxic injury, MTT)). Details: pre-protection 2 h, 200 iM glutamate 24 h, MTT cell viability; read-out: EC50, protective effects of the compounds on rat's nerve cells.
Type: cell-based
Procedure: Isolated primary cerebellum granule cells of infant rats were inoculated in 96-well plates with 1.2×10^5/well by using 10% FBS+25 mM KCl+2 mM Glutamine+1% of double-antibody BME medium. After 24 hours, cytarabine with a final concentration of 10 iM was added to inhibit the proliferation of neurogliocyte cells. After the day 4, glucose with the final concentration of 5 mM was added every four days to complement energy metabolism and water evaporation of cells. The materials were placed in a cell incubator (37° C., 5% CO2) to be cultured for 10 days. […] After pre-protection for 2 h, 200 iM of glutamate was added to induce cell damage for 24 h, and then MTT was added to culture for 4 h. The supernatant fraction was sucked, and 150 iL of DMSO was added to each well for dissolving. After blending with shaking, the light absorption values under 570 nm wavelength was measured with a microplate reader, and the viability of cells was calculated. Cell viability (%)=absorbance of different groups/absorbance of the normal control group×100%.

First: CC12CC3CC(N)(C1)CC(O[N+](=O)[O-])(C3)C2 (stereo not shown) [NM-001]
Second: CCC12CC3CC(N)(C1)CC(O[N+](=O)[O-])(C3)C2 (stereo not shown) [NM-003]
The EC50 of the first is 1.6-fold higher: 24.6 µM for the first, 15.4 µM for the second.

`CCC12CC3CC(N)(C1)CC(CO[N+](=O)[O-])(C3)C2` (stereo not shown) [NM-004] and `CCC12CC3CC(N)(C1)CC(CCCO[N+](=O)[O-])(C3)C2` (stereo not shown) [NM-005] are within 1.5-fold of each other in EC50: 8.12 µM for the first, 6.06 µM for the second.

First: NC12CC3CC(CCO[N+](=O)[O-])(C1)CC(CCO[N+](=O)[O-])(C3)C2 [NM-009]
Second: CC(CO[N+](=O)[O-])CC12CC3CC(N)(C1)CC(CC(C)CO[N+](=O)[O-])(C3)C2 (stereo not shown) [NM-012]
The EC50 of the first is 1.8-fold lower: 5.2 µM for the first, 9.3 µM for the second.

`CCC12CC3(N)CC(CC)(C1)CC(O[N+](=O)[O-])(C3)C2` [YQW-036, reference compound] showed an EC50 of 31.4 µM.

From patent US10214478B2, “Amantadine nitrate compounds with neural protective effect, and preparation and medical use thereof” (GUANGZHOU MAGPIE PHARMACEUTICALS CO., LTD., priority 2016, dated 2019)
